Reference: ChEMBL document CHEMBL1151757, “Synthesis, radiosynthesis, and biological evaluation of fluorine-18-labeled 2beta-carbo(fluoroalkoxy)-3beta-(3'-((Z)-2-haloethenyl)phenyl)nortropanes: candidate radioligands for in vivo imaging of the serotonin transporter with positron emission tomography” (J Med Chem, 2008)

Key:
Putamen [1] = assay: Drug uptake in anesthetized cynomolgus monkey brain putamen after 85 mins postinjection; format: ADME, organism-based, Macaca fascicularis; parameters: unit not given here; conditions: in vivo
Medulla [2] = assay: Drug uptake in anesthetized cynomolgus monkey brain medulla after 1.5 mins postinjection; format: ADME, organism-based, Macaca fascicularis; conditions: in vivo, 0.025 h
[3] = Drug uptake in anesthetized cynomolgus monkey brain cerebellum after 155 mins postinjection; format: ADME, organism-based, Macaca fascicularis; conditions: in vivo
Medulla [4] = assay: Drug uptake in anesthetized cynomolgus monkey brain medulla after 215 mins postinjection; format: ADME, organism-based, Macaca fascicularis; conditions: in vivo
[5] = Ratio of drug uptake in caudate to cerebellum in anesthetized cynomolgus monkey after 225 mins postinjection; format: ADME, organism-based, Macaca fascicularis; conditions: in vivo, 3.75 h
Caudate [6] = assay: Drug uptake in anesthetized cynomolgus monkey brain caudate after 165 mins postinjection; format: ADME, organism-based, Macaca fascicularis, Caudate nucleus; conditions: in vivo, 2.75 h
Thalamus [7] = assay: Drug uptake in anesthetized cynomolgus monkey brain thalamus after 12.5 mins postinjection; format: ADME, organism-based, Macaca fascicularis; parameters: unit not given here; conditions: in vivo
[8] = Ratio of drug uptake in putamen to cerebellum in anesthetized cynomolgus monkey after 235 mins postinjection; format: ADME, organism-based, Macaca fascicularis; conditions: in vivo
[9] = Drug uptake in anesthetized cynomolgus monkey brain occipital lobe after 225 mins postinjection; format: ADME, organism-based, Macaca fascicularis; conditions: in vivo, 3.75 h
Medulla [10] = assay: Drug uptake in anesthetized cynomolgus monkey brain medulla after 6.5 mins postinjection; format: ADME, organism-based, Macaca fascicularis; conditions: in vivo
[11] = Ratio of drug uptake in caudate to cerebellum in anesthetized cynomolgus monkey after 95 mins postinjection; format: ADME, organism-based, Macaca fascicularis; conditions: in vivo
Thalamus [12] = assay: Drug uptake in anesthetized cynomolgus monkey brain thalamus after 6.5 mins postinjection; format: ADME, organism-based, Macaca fascicularis; parameters: unit not given here; conditions: in vivo
[13] = Drug uptake in anesthetized cynomolgus monkey brain cerebellum after 27.5 mins postinjection; format: ADME, organism-based, Macaca fascicularis; conditions: in vivo
Pons [14] = assay: Drug uptake in anesthetized cynomolgus monkey brain pons after 18.5 mins postinjection; format: ADME, organism-based, Macaca fascicularis; conditions: in vivo
[15] = Drug uptake in anesthetized cynomolgus monkey brain occipital lobe after 45 mins postinjection; format: ADME, organism-based, Macaca fascicularis; conditions: in vivo, 0.75 h
Caudate [16] = assay: Drug uptake in anesthetized cynomolgus monkey brain caudate after 105 mins postinjection; format: ADME, organism-based, Macaca fascicularis, Caudate nucleus; conditions: in vivo, 1.75 h
Medulla [17] = assay: Drug uptake in anesthetized cynomolgus monkey brain medulla after 75 mins postinjection; format: ADME, organism-based, Macaca fascicularis; conditions: in vivo, 1.25 h
Medulla [18] = assay: Drug uptake in anesthetized cynomolgus monkey brain medulla after 65 mins postinjection; format: ADME, organism-based, Macaca fascicularis; conditions: in vivo
Putamen [19] = assay: Drug uptake in anesthetized cynomolgus monkey brain putamen after 135 mins postinjection; format: ADME, organism-based, Macaca fascicularis; conditions: in vivo, 2.25 h
Thalamus [20] = assay: Drug uptake in anesthetized cynomolgus monkey brain thalamus after 0.5 mins postinjection; format: ADME, organism-based, Macaca fascicularis; conditions: in vivo
[21] = Drug uptake in anesthetized cynomolgus monkey brain frontal lobe after 0.5 mins postinjection; format: ADME, organism-based, Macaca fascicularis; conditions: in vivo
[22] = Drug uptake in anesthetized cynomolgus monkey brain occipital lobe after 1.5 mins postinjection; format: ADME, organism-based, Macaca fascicularis; conditions: in vivo, 0.025 h
Thalamus [23] = assay: Drug uptake in anesthetized cynomolgus monkey brain thalamus after 215 mins postinjection; format: ADME, organism-based, Macaca fascicularis; parameters: unit not given here; conditions: in vivo
[24] = Drug uptake in anesthetized cynomolgus monkey brain occipital lobe after 2.5 mins postinjection; format: ADME, organism-based, Macaca fascicularis; conditions: in vivo
Pons [25] = assay: Drug uptake in anesthetized cynomolgus monkey brain pons after 2.5 mins postinjection; format: ADME, organism-based, Macaca fascicularis; conditions: in vivo
[26] = Drug uptake in anesthetized cynomolgus monkey brain frontal lobe after 175 mins postinjection; format: ADME, organism-based, Macaca fascicularis; conditions: in vivo
[27] = Drug uptake in anesthetized cynomolgus monkey brain occipital lobe after 4.5 mins postinjection; format: ADME, organism-based, Macaca fascicularis; conditions: in vivo, 0.075 h
[28] = Ratio of drug uptake in caudate to cerebellum in anesthetized cynomolgus monkey after 0.5 mins postinjection; format: ADME, organism-based, Macaca fascicularis; conditions: in vivo
Putamen [29] = assay: Drug uptake in anesthetized cynomolgus monkey brain putamen after 125 mins postinjection; format: ADME, organism-based, Macaca fascicularis; conditions: in vivo
Caudate [30] = assay: Drug uptake in anesthetized cynomolgus monkey brain caudate after 155 mins postinjection; format: ADME, organism-based, Macaca fascicularis, Caudate nucleus; conditions: in vivo
[31] = Ratio of drug uptake in pons to cerebellum in anesthetized cynomolgus monkey after 145 mins postinjection; format: ADME, organism-based, Macaca fascicularis; conditions: in vivo
Thalamus [32] = assay: Drug uptake in anesthetized cynomolgus monkey brain thalamus after 155 mins postinjection; format: ADME, organism-based, Macaca fascicularis; parameters: unit not given here; conditions: in vivo
[33] = Ratio of drug uptake in occipital lobe to cerebellum in anesthetized cynomolgus monkey after 12.5 mins postinjection; format: ADME, organism-based, Macaca fascicularis; conditions: in vivo
[34] = Drug uptake in anesthetized cynomolgus monkey brain frontal lobe after 65 mins postinjection; format: ADME, organism-based, Macaca fascicularis; conditions: in vivo
Pons [35] = assay: Drug uptake in anesthetized cynomolgus monkey brain pons after 22.5 mins postinjection; format: ADME, organism-based, Macaca fascicularis; conditions: in vivo, 0.375 h
[36] = Drug uptake in anesthetized cynomolgus monkey brain cerebellum after 225 mins postinjection; format: ADME, organism-based, Macaca fascicularis; conditions: in vivo, 3.75 h
Pons [37] = assay: Drug uptake in anesthetized cynomolgus monkey brain pons after 6.5 mins postinjection; format: ADME, organism-based, Macaca fascicularis; conditions: in vivo
Putamen [38] = assay: Drug uptake in anesthetized cynomolgus monkey brain putamen after 35 mins postinjection; format: ADME, organism-based, Macaca fascicularis; parameters: unit not given here; conditions: in vivo
Putamen [39] = assay: Drug uptake in anesthetized cynomolgus monkey brain putamen after 115 mins postinjection; format: ADME, organism-based, Macaca fascicularis; parameters: unit not given here; conditions: in vivo
Putamen [40] = assay: Drug uptake in anesthetized cynomolgus monkey brain putamen after 0.5 mins postinjection; format: ADME, organism-based, Macaca fascicularis; conditions: in vivo
Medulla [41] = assay: Drug uptake in anesthetized cynomolgus monkey brain medulla after 85 mins postinjection; format: ADME, organism-based, Macaca fascicularis; conditions: in vivo
Thalamus [42] = assay: Drug uptake in anesthetized cynomolgus monkey brain thalamus after 4.5 mins postinjection; format: ADME, organism-based, Macaca fascicularis; parameters: unit not given here; conditions: in vivo, 0.075 h
[43] = Ratio of drug uptake in pons to cerebellum in anesthetized cynomolgus monkey after 175 mins postinjection; format: ADME, organism-based, Macaca fascicularis; conditions: in vivo
[44] = Ratio of drug uptake in medulla to cerebellum in anesthetized cynomolgus monkey after 65 mins postinjection; format: ADME, organism-based, Macaca fascicularis; conditions: in vivo
[45] = Drug uptake in anesthetized cynomolgus monkey brain cerebellum after 1.5 mins postinjection; format: ADME, organism-based, Macaca fascicularis; conditions: in vivo, 0.025 h
Medulla [46] = assay: Drug uptake in anesthetized cynomolgus monkey brain medulla after 35 mins postinjection; format: ADME, organism-based, Macaca fascicularis; conditions: in vivo
Putamen [47] = assay: Drug uptake in anesthetized cynomolgus monkey brain putamen after 55 mins postinjection; format: ADME, organism-based, Macaca fascicularis; parameters: unit not given here; conditions: in vivo
[48] = Ratio of drug uptake in medulla to cerebellum in anesthetized cynomolgus monkey after 95 mins postinjection; format: ADME, organism-based, Macaca fascicularis; conditions: in vivo
[49] = Ratio of drug uptake in pons to cerebellum in anesthetized cynomolgus monkey after 105 mins postinjection; format: ADME, organism-based, Macaca fascicularis; conditions: in vivo, 1.75 h
Putamen [50] = assay: Drug uptake in anesthetized cynomolgus monkey brain putamen after 3.5 mins postinjection; format: ADME, organism-based, Macaca fascicularis; conditions: in vivo
Midbrain [51] = assay: Drug uptake in anesthetized cynomolgus monkey brain midbrain after 12.5 mins postinjection; format: ADME, organism-based, Macaca fascicularis; parameters: unit not given here; conditions: in vivo
Caudate [52] = assay: Drug uptake in anesthetized cynomolgus monkey brain caudate after 215 mins postinjection; format: ADME, organism-based, Macaca fascicularis, Caudate nucleus; conditions: in vivo
Pons [53] = assay: Drug uptake in anesthetized cynomolgus monkey brain pons after 115 mins postinjection; format: ADME, organism-based, Macaca fascicularis; conditions: in vivo
Midbrain [54] = assay: Drug uptake in anesthetized cynomolgus monkey brain midbrain after 155 mins postinjection; format: ADME, organism-based, Macaca fascicularis; conditions: in vivo
[55] = Drug uptake in anesthetized cynomolgus monkey brain cerebellum after 15.5 mins postinjection; format: ADME, organism-based, Macaca fascicularis; conditions: in vivo
Pons [56] = assay: Drug uptake in anesthetized cynomolgus monkey brain pons after 185 mins postinjection; format: ADME, organism-based, Macaca fascicularis; conditions: in vivo
[57] = Ratio of drug uptake in putamen to cerebellum in anesthetized cynomolgus monkey after 75 mins postinjection; format: ADME, organism-based, Macaca fascicularis; conditions: in vivo, 1.25 h
Putamen [58] = assay: Drug uptake in anesthetized cynomolgus monkey brain putamen after 215 mins postinjection; format: ADME, organism-based, Macaca fascicularis; conditions: in vivo
Thalamus [59] = assay: Drug uptake in anesthetized cynomolgus monkey brain thalamus after 9.5 mins postinjection; format: ADME, organism-based, Macaca fascicularis; parameters: unit not given here; conditions: in vivo
Thalamus [60] = assay: Drug uptake in anesthetized cynomolgus monkey brain thalamus after 135 mins postinjection; format: ADME, organism-based, Macaca fascicularis; parameters: unit not given here; conditions: in vivo, 2.25 h
Pons [61] = assay: Drug uptake in anesthetized cynomolgus monkey brain pons after 1.5 mins postinjection; format: ADME, organism-based, Macaca fascicularis; conditions: in vivo, 0.025 h
Midbrain [62] = assay: Drug uptake in anesthetized cynomolgus monkey brain midbrain after 18.5 mins postinjection; format: ADME, organism-based, Macaca fascicularis; parameters: unit not given here; conditions: in vivo
Caudate [63] = assay: Drug uptake in anesthetized cynomolgus monkey brain caudate after 85 mins postinjection; format: ADME, organism-based, Macaca fascicularis, Caudate nucleus; conditions: in vivo
[64] = Ratio of drug uptake in thalamus to cerebellum in anesthetized cynomolgus monkey after 27.5 mins postinjection; format: ADME, organism-based, Macaca fascicularis; conditions: in vivo
[65] = Drug uptake in anesthetized cynomolgus monkey brain occipital lobe after 22.5 mins postinjection; format: ADME, organism-based, Macaca fascicularis; conditions: in vivo, 0.375 h
Medulla [66] = assay: Drug uptake in anesthetized cynomolgus monkey brain medulla after 12.5 mins postinjection; format: ADME, organism-based, Macaca fascicularis; conditions: in vivo
[67] = Ratio of drug uptake in midbrain to cerebellum in anesthetized cynomolgus monkey after 95 mins postinjection; format: ADME, organism-based, Macaca fascicularis; conditions: in vivo
[68] = Drug uptake in anesthetized cynomolgus monkey brain occipital lobe after 15.5 mins postinjection; format: ADME, organism-based, Macaca fascicularis; conditions: in vivo
[69] = Drug uptake in anesthetized cynomolgus monkey brain occipital lobe after 95 mins postinjection; format: ADME, organism-based, Macaca fascicularis; conditions: in vivo

## O=C(OCCC[18F])C1C2CCC(CC1c1cccc(/C=C\I)c1)N2 (centres undefined)
Putamen [1]
  Drug uptake: 4.82
Medulla [2]
  Drug uptake: 0.35
[3]
  Drug uptake: 2.32
Medulla [4]
  Drug uptake: 3.66
[5]
  Ratio: 1.3
Caudate [6]
  Drug uptake: 3.04
Thalamus [7]
  Drug uptake: 3.75
[8]
  Ratio: 1.6
[9]
  Drug uptake: 2.09
Medulla [10]
  Drug uptake: 3.75
[11]
  Ratio: 1.1
Thalamus [12]
  Drug uptake: 3.06
[13]
  Drug uptake: 4.8
Pons [14]
  Drug uptake: 4.2
[15]
  Drug uptake: 4.09
Caudate [16]
  Drug uptake: 3.7
Medulla [17]
  Drug uptake: 5.16
Medulla [18]
  Drug uptake: 4.96
Putamen [19]
  Drug uptake: 4.16
Thalamus [20]
  Drug uptake: 0.01
[21]
  Drug uptake: 0
[22]
  Drug uptake: 0.19
Thalamus [23]
  Drug uptake: 3.02
[24]
  Drug uptake: 0.62
Pons [25]
  Drug uptake: 0.95
[26]
  Drug uptake: 2.05
[27]
  Drug uptake: 2.06
[28]
  Ratio: 1
Putamen [29]
  Drug uptake: 4.31
Caudate [30]
  Drug uptake: 3.19
[31]
  Ratio: 1.6
Thalamus [32]
  Drug uptake: 3.73
[33]
  Ratio: 0.8
[34]
  Drug uptake: 2.77
Pons [35]
  Drug uptake: 4.1
[36]
  Drug uptake: 1.87
Pons [37]
  Drug uptake: 2.85
Putamen [38]
  Drug uptake: 4.99
Putamen [39]
  Drug uptake: 4.44
Putamen [40]
  Drug uptake: 0.01
Medulla [41]
  Drug uptake: 4.79
Thalamus [42]
  Drug uptake: 2.07
[43]
  Ratio: 1.4
[44]
  Ratio: 1.2
[45]
  Drug uptake: 0.27
Medulla [46]
  Drug uptake: 5.04
Putamen [47]
  Drug uptake: 5.03
[48]
  Ratio: 1.4
[49]
  Ratio: 1.2
Putamen [50]
  Drug uptake: 1.59
Midbrain [51]
  Drug uptake: 4.11
Caudate [52]
  Drug uptake: 2.54
Pons [53]
  Drug uptake: 3.98
Midbrain [54]
  Drug uptake: 4.35
[55]
  Drug uptake: 4.75
Pons [56]
  Drug uptake: 3.31
[57]
  Ratio: 1.3
Putamen [58]
  Drug uptake: 3.13
Thalamus [59]
  Drug uptake: 3.45
Thalamus [60]
  Drug uptake: 4.02
Pons [61]
  Drug uptake: 0.21
Midbrain [62]
  Drug uptake: 4.65
Caudate [63]
  Drug uptake: 3.94
[64]
  Ratio: 1
[65]
  Drug uptake: 3.88
Medulla [66]
  Drug uptake: 4.73
[67]
  Ratio: 1.4
[68]
  Drug uptake: 3.53
[69]
  Drug uptake: 3.35
